Reference: US11795169B2, “MAP4K4 inhibitors” (IMPERIAL COLLEGE INNOVATIONS LIMITED, priority 2017, dated 2023)
Structures can show the parent of a compound that is named as a salt.

Target: human MAP4K4 kinase domain (Homo sapiens (Human), UniProt O95819)
Test: MAP4K4 kinase activity, CisBio HTRF Transcreener ADP assay
Format: biochemical
Conditions: ATP at Km (10 μM), 0.5 nM kinase domain, 2 h; read-out: MAP4K4
Text: Compounds of the present invention were screened for their inhibitory activity against MAP4K4, versus selected off-target hits found with early members of this chemical series. MAP4K4 kinase activity was monitored using the CisBio HTRF Transcreener ADP assay, acompetitive immunoassay with a reproducible Z′>0.6. In the detection step, endogenous ADP and d2-labeled ADP compete for binding an anti-ADP monoclonal antibody labelled with Eu^3+ cryptate. A ratiometric fluorescent read-out is used at 665 and 620 nm. […] Assays were run in Greiner low volume plates with a final reaction volume of 10 μl. The MAP4K4 inhibition data are provided in Table 33 below for selected compounds of the present invention. The data has been categorised based on the IC50 value of the compound as “A”, “B” or “C”.

Sequence of human MAP4K4 kinase domain (O95819 25-289): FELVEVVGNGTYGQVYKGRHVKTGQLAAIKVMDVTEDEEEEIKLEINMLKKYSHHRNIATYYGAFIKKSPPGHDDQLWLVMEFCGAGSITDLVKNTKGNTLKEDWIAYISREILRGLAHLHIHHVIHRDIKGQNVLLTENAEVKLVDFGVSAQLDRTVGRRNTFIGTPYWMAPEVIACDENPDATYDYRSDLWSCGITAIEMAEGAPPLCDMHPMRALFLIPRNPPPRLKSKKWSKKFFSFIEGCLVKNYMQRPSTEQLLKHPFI

IC50 [nM]	SMILES
≤ 100	COc1ccc(-c2cn(-c3ccccc3)c3nc[nH]c(=O)c23)cc1 [Ex-23]
≤ 100	NCCOc1ccc(-c2cn(-c3ccccc3)c3nc[nH]c(=O)c23)cc1 [Ex-78]
≤ 100	NC(=O)c1cccc(-n2cc(-c3ccccc3)c3c(=O)[nH]cnc32)c1 [Ex-2]
> 1000	O=c1[nH]cnc2c(-c3ccc(OCC4CCNC4)cc3)cn(-c3ccccc3)c12 (centres unmarked) [Ex-94, 5-Phenyl-7-[4-(pyrrolidin-3-ylmethoxy)-phenyl]-3,5-dihydro-pyrrolo[3,2-d]pyrimidin-4-one]
≤ 100	N#Cc1ccc(-c2cn(-c3ccccc3)c3nc[nH]c(=O)c23)cc1 [Ex-11, 4-(4-oxo-7-phenyl-4,7-dihydro-3H-pyrrolo[2,3-d]pyrimidin-5-yl)-benzonitrile]
100 to 1000	CC(=O)NCc1cccc(-c2cn(-c3ccccc3)c3nc[nH]c(=O)c23)c1 [Ex-71, N-[3-(4-Oxo-7-phenyl-4,7-dihydro-3H-pyrrolo[2,3-d]pyrimidin-5-yl)-benzyl]-acetamide]
≤ 100	CC(C)(O)COc1ccc(-c2cn(-c3ccccc3)c3nc[nH]c(=O)c23)cc1 [Ex-64]
≤ 100	N#Cc1cccc(-c2cn(-c3ccccc3)c3nc[nH]c(=O)c23)c1 [Ex-8]
> 1000	CNC(=O)c1ccc(-n2cc(-c3ccccc3)c3c(=O)[nH]cnc32)cc1 [Ex-5, N-Methyl-4-(4-oxo-5-phenyl-3,4-dihydro-pyrrolo[2,3-d]pyrimidin-7-yl)-benzamide]
≤ 100	CNCC(=O)Nc1ccc(-c2cn(-c3ccccc3)c3nc[nH]c(=O)c23)cc1 [Ex-77]
≤ 100	O=c1[nH]cnc2c1c(-c1ccc(OCC3CNC3)cc1)cn2-c1ccccc1 [Ex-80, 5-[4-(Azetidin-3-ylmethoxy)-phenyl]-7-phenyl-3,7-dihydro-pyrrolo[2,3-d]pyrimidin-4-one-formate salt]
≤ 100	O=C1CCCN1c1ccc(-c2cn(-c3cccc(F)c3)c3nc[nH]c(=O)c23)cc1 [Ex-25]
100 to 1000	CN(Cc1cccc(-c2cn(-c3ccccc3)c3nc[nH]c(=O)c23)c1)C(=O)OC(C)(C)C [Ex-32]
> 1000	CN(C)CCNC(=O)c1cccc(-c2cn(-c3ccccc3)c3nc[nH]c(=O)c23)c1 [Ex-21]
100 to 1000	C[C@@H](O)COc1ccc(-c2cn(-c3ccccc3)c3c(=O)[nH]cnc23)cc1 [Ex-92]
≤ 100	CC(C)(O)COc1ccc(-c2cn(-c3ccccc3)c3nc[nH]c(=O)c23)cc1C#N [Ex-7, 2-(2-Hydroxy-2-methylpropoxy)-5-(4-oxo-7-phenyl-4,7-dihydro-3H-pyrrolo[2,3-d]pyrimidin-5-yl)benzonitrile]
> 1000	C[C@H](O)COc1ccc(-c2cn(-c3ccccc3)c3c(=O)[nH]cnc23)cc1 [Ex-93]
100 to 1000	O=c1[nH]cnc2c(-c3ccc(OCC(O)CN4CCOCC4)cc3)cn(-c3ccccc3)c12 (centres unmarked) [Ex-89]
≤ 100	O=C1COCCN1CC(O)COc1ccc(-c2cn(-c3ccccc3)c3nc[nH]c(=O)c23)cc1 (centres unmarked) [Ex-38]
≤ 100	CN1CCN(CC(O)COc2ccc(-c3cn(-c4ccccc4)c4nc[nH]c(=O)c34)cc2)CC1 (centres unmarked) [Ex-48]
≤ 100	COCCOc1ccc(-c2cn(-c3cccc(F)c3)c3nc[nH]c(=O)c23)cc1 [Ex-65]
> 1000	CC(C)(O)COc1ccc(-c2cn(-c3ccccc3)c3c(=O)[nH]cnc23)cc1 [Ex-87]

IC50 [nM]	SMILES
≤ 100	CCOC(=O)Cc1ccc(-c2cn(-c3ccccc3)c3nc[nH]c(=O)c23)cc1 [Ex-10, [4-(4-oxo-7-phenyl-4,7-dihydro-3H-pyrrolo[2,3-d]pyrimidin-5-yl)-phenyl]-acetic acid ethyl ester]
≤ 100	CN(C)CC(O)COc1ccc(-c2cn(-c3ccccc3)c3nc[nH]c(=O)c23)cc1 (centres unmarked) [Ex-46]
≤ 100	CNCCC(=O)Nc1ccc(-c2cn(-c3ccccc3)c3nc[nH]c(=O)c23)cc1 [Ex-81]
> 1000	CCOC(=O)c1cccc(-c2cn(-c3ccccc3)c3c(=O)[nH]cnc23)c1 [Ex-96, 3-(4-Oxo-5-phenyl-4,5-dihydro-3H-pyrrolo[3,2-d]pyrimidin-7-yl)-benzoic acid ethyl ester]
> 1000	CNCc1cccc(-c2cn(-c3ccccc3)c3nc[nH]c(=O)c23)c1 [Ex-79]
≤ 100	NC(=O)Cc1ccc(-c2cn(-c3ccccc3)c3nc[nH]c(=O)c23)cc1 [Ex-83, 2-[4-(4-Oxo-7-phenyl-4,7-dihydro-3H-pyrrolo[2,3-d]pyrimidin-5-yl)-phenyl]-acetamide]
≤ 100	C[C@@H](O)COc1ccc(-c2cn(-c3ccccc3)c3nc[nH]c(=O)c23)cc1 [Ex-52]
100 to 1000	O=c1[nH]cnc2c(-c3ccc(OCC(O)CN4CCCC4)cc3)cn(-c3ccccc3)c12 (centres unmarked) [Ex-91]
≤ 100	O=C1N(CCO)CCN1c1ccc(-c2cn(-c3ccccc3)c3nc[nH]c(=O)c23)cc1 [Ex-55, 5-{4-[3-(2-Hydroxy-ethyl)-2-oxo-imidazolidin-1-yl]-phenyl}-7-phenyl-3,7-dihydro-pyrrolo[2,3-d]pyrimidin-4-one]
100 to 1000	O=c1[nH]cnc2c(-c3ccc(OCC(O)CO)cc3)cn(-c3ccccc3)c12 (centres unmarked) [Ex-88, 7-[4-(2,3-Dihydroxypropoxy)-phenyl]-5-phenyl-3,5-dihydropyrrolo[3,2-d]pyrimidin-4-one]
100 to 1000	N#Cc1ccc(-c2cn(-c3ccccc3)c3c(=O)[nH]cnc23)cc1 [Ex-99]
100 to 1000	O=c1[nH]cnc2c(-c3ccc(OCCCN4CCOCC4)cc3)cn(-c3ccccc3)c12 [Ex-84, 7-[4-(3-Morpholin-4-yl-propoxy)-phenyl]-5-phenyl-3,5-dihydro-pyrrolo[3,2-d]pyrimidin-4-one]
≤ 100	COc1cccc(-n2cc(-c3ccc(OCC(O)CN4CCOCC4)cc3)c3c(=O)[nH]cnc32)c1 (centres unmarked) [Ex-41, 5-[4-(2-Hydroxy-3-morpholin-4-yl-propoxy)-phenyl]-7-(3-methoxy-phenyl)-3,7-dihydro-pyrrolo[2,3-d]pyrimidin-4-one]
100 to 1000	O=c1[nH]cnc2c1c(-c1cccc(OCCO)c1)cn2-c1ccccc1 [Ex-47]
≤ 100	O=C(Nc1ccc(-c2cn(-c3ccccc3)c3nc[nH]c(=O)c23)cc1)N1CCC(O)C1 (racemic) [compound 39]
> 1000	O=c1[nH]cnc2c1c(-c1ccccc1)cn2-c1ccc(Cn2ccnc2)cc1 [Ex-4]
100 to 1000	NCc1ccc(-c2cn(-c3ccccc3)c3nc[nH]c(=O)c23)cc1 [Ex-74, 5-(4-Aminomethyl-phenyl)-7-phenyl-3,7-dihydro-pyrrolo[2,3-d]pyrimidin-4-one]
≤ 100	C[C@H](O)COc1ccc(-c2cn(-c3ccccc3)c3nc[nH]c(=O)c23)cc1 [Ex-53]
> 1000	CCOC(=O)c1ccc(-c2cn(-c3ccccc3)c3c(=O)[nH]cnc23)cc1 [Ex-98]
≤ 100	O=c1[nH]cnc2c1c(-c1ccc(OCC3(O)COC3)cc1)cn2-c1ccccc1 [Ex-69]
≤ 100	O=c1[nH]cnc2c1c(-c1ccc(OCC(O)CN3CCS(=O)(=O)CC3)cc1)cn2-c1ccccc1 (centres unmarked) [Ex-51]
≤ 100	O=C(CO)Nc1ccc(-c2cn(-c3ccccc3)c3nc[nH]c(=O)c23)cc1 [Ex-14]

IC50 [nM]	SMILES
> 1000	O=C(O)c1cccc(-c2cn(-c3ccccc3)c3c(=O)[nH]cnc23)c1 [Ex-101, 3-(4-Oxo-5-phenyl-4,5-dihydro-3H-pyrrolo[3,2-d]pyrimidin-7-yl)-benzoic acid]
≤ 100	O=c1[nH]cnc2c1c(-c1ccc(OCC(O)CN3CCOCC3)cc1)cn2-c1cccc(F)c1 (centres unmarked) [Ex-43]
≤ 100	CC(=O)Nc1ccc(-c2cn(-c3ccccc3)c3nc[nH]c(=O)c23)cc1 [Ex-9]
100 to 1000	O=C1CCCCN1c1ccc(-c2cn(-c3ccccc3)c3nc[nH]c(=O)c23)cc1 [Ex-20]
≤ 100	N#Cc1cc(-c2cn(-c3ccccc3)c3nc[nH]c(=O)c23)ccc1OCC(O)CN1CCOCC1 (centres unmarked) [Ex-49]
> 1000	CN(C)Cc1cccc(-c2cn(-c3ccccc3)c3nc[nH]c(=O)c23)c1 [Ex-31]
≤ 100	O=C1CCCN1c1ccc(-c2cn(-c3ccccc3)c3nc[nH]c(=O)c23)cc1 [Ex-19]
≤ 100	O=c1[nH]cnc2c1c(-c1ccc(OCC(O)CO)cc1)cn2-c1ccccc1 (centres unmarked) [Ex-68]
100 to 1000	NCc1cccc(-c2cn(-c3ccccc3)c3nc[nH]c(=O)c23)c1 [Ex-75]
100 to 1000	CN(CC(O)COc1ccc(-c2cn(-c3ccccc3)c3c(=O)[nH]cnc23)cc1)C1CC1 (centres unmarked) [Ex-90]
≤ 100	Cc1cc(OCCO)ccc1-c1cn(-c2ccccc2)c2nc[nH]c(=O)c12 [Ex-57]
≤ 100	O=C(CN1CCOCC1)Nc1ccc(-c2cn(-c3ccccc3)c3nc[nH]c(=O)c23)cc1 [Ex-16]
≤ 100	CN1CCN(CC(=O)Nc2ccc(-c3cn(-c4ccccc4)c4nc[nH]c(=O)c34)cc2)CC1 [Ex-17]
≤ 100	O=c1[nH]cnc2c1c(-c1cccc(CO)c1)cn2-c1ccccc1 [Ex-45]
≤ 100	O=c1[nH]cnc2c1c(-c1ccc(N3CCCC3)cc1)cn2-c1ccccc1 [Ex-62]
> 1000	CN1CCC(COc2ccc(-c3cn(-c4ccccc4)c4c(=O)[nH]cnc34)cc2)C1 (centres unmarked) [Ex-95, 7-[4-(1-Methyl-pyrrolidin-3-ylmethoxy)-phenyl]-5-phenyl-3,5-dihydro-pyrrolo[3,2-d]pyrimidin-4-one]
100 to 1000	NC(=O)c1ccc(-n2cc(-c3ccccc3)c3c(=O)[nH]cnc32)cc1 [Ex-6]
≤ 100	O=c1[nH]cnc2c1c(-c1ccc(OCCO)cc1)cn2-c1ccccc1 [Ex-70]
≤ 100	COC(COc1ccc(-c2cn(-c3ccccc3)c3nc[nH]c(=O)c23)cc1)CN1CCOCC1 (centres unmarked) [Ex-28]
100 to 1000	O=C(O)c1ccc(-c2cn(-c3ccccc3)c3c(=O)[nH]cnc23)cc1 [Ex-102]
≤ 100	CC(C)(O)CN1CCN(c2ccc(-c3cn(-c4ccccc4)c4nc[nH]c(=O)c34)cc2)C1=O [Ex-37]
